≈ marks a conversion by molar mass, not a printed value. One block for each compound: values may come before it.
Experiments:
[1] = Intrinsic clearance in Wistar Han rat at 0.1 mg/kg, iv by LC-MS/MS analysis; assay type: ADME, organism-based; settings: in vivo
[2] = Total plasma clearance in Wistar Han rat at 0.1 mg/kg, iv by LC-MS/MS analysis; assay type: ADME, organism-based
[3] = target: Voltage-gated inwardly rectifying potassium channel KCNH2 (Homo sapiens, UniProt Q12809); experiment: Inhibition of human ERG by voltage clamp assay; assay type: toxicity
[4] = Dissociation constant, pKa of the compound; assay type: physicochemical
[5] = target: Leucine-rich repeat serine/threonine-protein kinase 2 (Homo sapiens) (UniProt Q5S007); experiment: Ex vivo inhibition of LRRK2 in human PBMC assessed as unbound concentration required for reduction in LRRK2 phosphorylation at Ser935 residue incubated for 90 mins by MSD assay; assay type: cell-based
[6] = MRT in Wistar Han rat at 0.1 mg/kg, iv by LC-MS/MS analysis; assay type: ADME, organism-based; settings: in vivo
[7] = Unbound brain-to-plasma concentration ratio in rat at 2.5 uM incubated for 4 hrs by equilibrium dialysis method; assay type: ADME, cell-free; settings: brain and plasma (unbound), read-out: K(p,uu,brain)
[8] = Unbound brain-to-plasma concentration ratio in non-human primates administered orally and measured after 120 mins by LC/MS/MS analysis; assay type: ADME; settings: po, read-out: K(p,uu,brain)
[9] = In vivo inhibition of LRRK2 in CD rat assessed as reduction in phosphorylation at Ser935 residue in striatum at 10 mg/kg, po measured after 2 hrs by MSD assay; assay type: functional
[10] = Unbound brain-to-plasma concentration ratio in CD rat 1 to 100 mg/kg, po measured after 120 mins by LC/MS/MS analysis; assay type: ADME, organism-based; settings: brain and plasma (unbound), dose 1-100 mg/kg, read-out: K(p,uu,brain)
[11] = tested on: rat Mdr1a (P-gp); experiment: Efflux ratio of apparent permeability across basolateral to apical side over apical to basolateral side in rat Mdr1a-transfected pig LLC-PK1 cells at 0.1 to 1 uM measured after 3 hrs by LC/MS/MS analysis; assay type: ADME, cell-based, Sus scrofa; settings: dose 0.1-1 µM
[12] = MRT in Beagle dog at 0.25 mg/kg, iv by LC-MS/MS analysis; assay type: ADME, organism-based, Canis lupus familiaris; settings: in vivo
[13] = tested on: GSTA5; experiment: Toxicity in rat assessed as fold increase in GSTA5 transcriptional activity in liver at 75 mg/kg, po bid administered for 4 days relative to control; assay type: organism-based; settings: time 4 day, read-out: FC
[14] = tested on: UGT1A6; experiment: Toxicity in rat assessed as fold increase in UGT1A6 transcriptional activity in liver at 75 mg/kg, po bid administered for 4 days relative to control; assay type: organism-based; settings: time 4 day, read-out: FC
[15] = Oral bioavailability in Wistar Han rat at 10 mg/kg by LC-MS/MS analysis; assay type: ADME, organism-based; settings: in vivo
[16] = Toxicity in rat assessed as drug tolerability at 10 to 75 mg/kg, po bid administered for 4 days; assay type: organism-based; settings: in vivo, 96 h, dose 10-75 mg/kg, time 4 day
[17] = Total plasma clearance in Rhesus monkey at 0.1 mg/kg, iv by LC-MS/MS analysis; assay type: ADME, organism-based, Macaca mulatta
[18] = Intrinsic clearance in Beagle dog at 0.25 mg/kg, iv by LC-MS/MS analysis; assay type: ADME, organism-based, Canis lupus familiaris; settings: in vivo
[19] = Intrinsic clearance in human hepatocytes at 0.3 uM incubated for 90 mins by LC/MS/MS analysis; assay type: ADME, cell-based, Hepatocyte; settings: read-out: CLH
[20] = Intrinsic clearance in Wistar Han rat at 2 mg/kg, iv by LC-MS/MS analysis; assay type: ADME, organism-based; settings: in vivo
[21] = tested on: mouse Bcrp; experiment: Apparent permeability in mouse Bcrp-transfected dog MDCK-II cells at 0.1 to 1 uM measured after 3 hrs by LC/MS/MS analysis; assay type: ADME, cell-based, Canis lupus familiaris; settings: dose 0.1-1 µM
[22] = Toxicity in rat assessed as elevation of AhR gene expression at 10 to 75 mg/kg, po bid administered for 4 days; assay type: organism-based; settings: in vivo, 96 h, dose 10-75 mg/kg, time 4 day
[23] = target: MAP/microtubule affinity-regulating kinase 3 (Homo sapiens, UniProt P27448); experiment: Inhibition of MARK3 (unknown origin)
[24] = tested on: Salmonella typhimurium; experiment: Mutagenicity in Salmonella typhimurium TA100 at 30 to 5000 ug incubated for 48 hrs in presence of liver S9 fraction by AMES test; assay type: toxicity, organism-based, Salmonella enterica subsp. enterica serovar Typhimurium; settings: s9, 48 h, dose 30-5000 µg
[25] = Total plasma clearance in Beagle dog at 0.25 mg/kg, iv by LC-MS/MS analysis; assay type: ADME, organism-based, Canis lupus familiaris
[26] = Intrinsic clearance in dog hepatocytes at 0.3 uM incubated for 90 mins by LC/MS/MS analysis; assay type: ADME, cell-based, Canis lupus familiaris, Hepatocyte; settings: read-out: CLH
[27] = MRT in Rhesus monkey at 0.1 mg/kg, iv by LC-MS/MS analysis; assay type: ADME, organism-based, Macaca mulatta; settings: in vivo
[28] = target: T1, Natriuretic peptides A (Homo sapiens) (UniProt P01160); experiment: Agonist activity at ANF (unknown origin) at 10 uM; settings: filed as agonist
T1 sequence (whole entry): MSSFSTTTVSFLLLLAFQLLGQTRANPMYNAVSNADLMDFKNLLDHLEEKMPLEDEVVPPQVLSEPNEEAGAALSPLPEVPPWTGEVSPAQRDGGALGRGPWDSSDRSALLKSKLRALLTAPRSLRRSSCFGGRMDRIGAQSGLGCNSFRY

[29] = AUC in rat at 10 to 75 mg/kg, po bid administered for 4 days; assay type: ADME, organism-based; set-up: time 4 day; settings: in vivo, 96 h, dose 10-75 mg/kg
[30] = MRT in Wistar Han rat at 2 mg/kg, iv by LC-MS/MS analysis; assay type: ADME, organism-based; settings: in vivo
[31] = Toxicity in rat assessed as elevation of inflammatory response related gene expression at 10 to 75 mg/kg, po bid administered for 4 days; assay type: organism-based; settings: in vivo, 96 h, dose 10-75 mg/kg, time 4 day
[32] = Total plasma clearance in Wistar Han rat at 2 mg/kg, iv by LC-MS/MS analysis; assay type: ADME, organism-based
[33] = Oral bioavailability in Beagle dog at 0.5 mg/kg by LC-MS/MS analysis; assay type: ADME, organism-based, Canis lupus familiaris; settings: in vivo
[34] = Intrinsic clearance in rat hepatocytes at 0.3 uM incubated for 90 mins by LC/MS/MS analysis; assay type: ADME, cell-based, Hepatocyte; settings: read-out: CLH
[35] = tested on: CYP1A1; experiment: Toxicity in rat assessed as fold induction of CYP1A1 transcriptional activity in liver at 10 to 75 mg/kg, po bid administered for 4 days relative to control; assay type: organism-based; settings: dose 10-75 mg/kg, time 4 day, read-out: FC
[36] = Thermodynamic solubility of the compound in FaSSIF measured after 24 hrs by reverse phase UPLC analysis; assay type: physicochemical; settings: read-out: Therm_solubility
[37] = tested on: mouse Bcrp; experiment: Efflux ratio of apparent permeability across basolateral to apical over apical to basolateral side in mouse Bcrp-transfected dog MDCK-II cells at 0.1 to 1 uM measured after 3 hrs by LC/MS/MS analysis; assay type: ADME, cell-based, Canis lupus familiaris; settings: dose 0.1-1 µM
[38] = tested on: Salmonella typhimurium; experiment: Mutagenicity in Salmonella typhimurium TA1535 at 30 to 5000 ug incubated for 48 hrs in presence of liver S9 fraction by AMES test; assay type: toxicity, organism-based, Salmonella enterica subsp. enterica serovar Typhimurium; settings: s9, 48 h, dose 30-5000 µg
[39] = Intrinsic clearance in Rhesus monkey at 0.1 mg/kg, iv by LC-MS/MS analysis; assay type: ADME, organism-based, Macaca mulatta; settings: in vivo
[40] = Toxicity in rat assessed as elevation of PXR gene expression at 10 to 75 mg/kg, po bid administered for 4 days; assay type: organism-based; settings: in vivo, 96 h, dose 10-75 mg/kg, time 4 day
[41] = tested on: Salmonella typhimurium; experiment: Mutagenicity in Salmonella typhimurium TA98 at 30 to 5000 ug incubated for 48 hrs in presence of liver S9 fraction by AMES test; assay type: toxicity, organism-based, Salmonella enterica subsp. enterica serovar Typhimurium; settings: s9, 48 h, dose 30-5000 µg
[42] = tested on: rat Mdr1a (P-gp); experiment: Apparent permeability from apical to basolateral side in rat Mdr1a-transfected pig LLC-PK1 cells at 0.1 to 1 uM measured after 3 hrs by LC/MS/MS analysis; assay type: ADME, cell-based, Sus scrofa; settings: dose 0.1-1 µM

Chain of Leucine-rich repeat serine/threonine-protein kinase 2 (Homo sapiens) (Q5S007 whole entry): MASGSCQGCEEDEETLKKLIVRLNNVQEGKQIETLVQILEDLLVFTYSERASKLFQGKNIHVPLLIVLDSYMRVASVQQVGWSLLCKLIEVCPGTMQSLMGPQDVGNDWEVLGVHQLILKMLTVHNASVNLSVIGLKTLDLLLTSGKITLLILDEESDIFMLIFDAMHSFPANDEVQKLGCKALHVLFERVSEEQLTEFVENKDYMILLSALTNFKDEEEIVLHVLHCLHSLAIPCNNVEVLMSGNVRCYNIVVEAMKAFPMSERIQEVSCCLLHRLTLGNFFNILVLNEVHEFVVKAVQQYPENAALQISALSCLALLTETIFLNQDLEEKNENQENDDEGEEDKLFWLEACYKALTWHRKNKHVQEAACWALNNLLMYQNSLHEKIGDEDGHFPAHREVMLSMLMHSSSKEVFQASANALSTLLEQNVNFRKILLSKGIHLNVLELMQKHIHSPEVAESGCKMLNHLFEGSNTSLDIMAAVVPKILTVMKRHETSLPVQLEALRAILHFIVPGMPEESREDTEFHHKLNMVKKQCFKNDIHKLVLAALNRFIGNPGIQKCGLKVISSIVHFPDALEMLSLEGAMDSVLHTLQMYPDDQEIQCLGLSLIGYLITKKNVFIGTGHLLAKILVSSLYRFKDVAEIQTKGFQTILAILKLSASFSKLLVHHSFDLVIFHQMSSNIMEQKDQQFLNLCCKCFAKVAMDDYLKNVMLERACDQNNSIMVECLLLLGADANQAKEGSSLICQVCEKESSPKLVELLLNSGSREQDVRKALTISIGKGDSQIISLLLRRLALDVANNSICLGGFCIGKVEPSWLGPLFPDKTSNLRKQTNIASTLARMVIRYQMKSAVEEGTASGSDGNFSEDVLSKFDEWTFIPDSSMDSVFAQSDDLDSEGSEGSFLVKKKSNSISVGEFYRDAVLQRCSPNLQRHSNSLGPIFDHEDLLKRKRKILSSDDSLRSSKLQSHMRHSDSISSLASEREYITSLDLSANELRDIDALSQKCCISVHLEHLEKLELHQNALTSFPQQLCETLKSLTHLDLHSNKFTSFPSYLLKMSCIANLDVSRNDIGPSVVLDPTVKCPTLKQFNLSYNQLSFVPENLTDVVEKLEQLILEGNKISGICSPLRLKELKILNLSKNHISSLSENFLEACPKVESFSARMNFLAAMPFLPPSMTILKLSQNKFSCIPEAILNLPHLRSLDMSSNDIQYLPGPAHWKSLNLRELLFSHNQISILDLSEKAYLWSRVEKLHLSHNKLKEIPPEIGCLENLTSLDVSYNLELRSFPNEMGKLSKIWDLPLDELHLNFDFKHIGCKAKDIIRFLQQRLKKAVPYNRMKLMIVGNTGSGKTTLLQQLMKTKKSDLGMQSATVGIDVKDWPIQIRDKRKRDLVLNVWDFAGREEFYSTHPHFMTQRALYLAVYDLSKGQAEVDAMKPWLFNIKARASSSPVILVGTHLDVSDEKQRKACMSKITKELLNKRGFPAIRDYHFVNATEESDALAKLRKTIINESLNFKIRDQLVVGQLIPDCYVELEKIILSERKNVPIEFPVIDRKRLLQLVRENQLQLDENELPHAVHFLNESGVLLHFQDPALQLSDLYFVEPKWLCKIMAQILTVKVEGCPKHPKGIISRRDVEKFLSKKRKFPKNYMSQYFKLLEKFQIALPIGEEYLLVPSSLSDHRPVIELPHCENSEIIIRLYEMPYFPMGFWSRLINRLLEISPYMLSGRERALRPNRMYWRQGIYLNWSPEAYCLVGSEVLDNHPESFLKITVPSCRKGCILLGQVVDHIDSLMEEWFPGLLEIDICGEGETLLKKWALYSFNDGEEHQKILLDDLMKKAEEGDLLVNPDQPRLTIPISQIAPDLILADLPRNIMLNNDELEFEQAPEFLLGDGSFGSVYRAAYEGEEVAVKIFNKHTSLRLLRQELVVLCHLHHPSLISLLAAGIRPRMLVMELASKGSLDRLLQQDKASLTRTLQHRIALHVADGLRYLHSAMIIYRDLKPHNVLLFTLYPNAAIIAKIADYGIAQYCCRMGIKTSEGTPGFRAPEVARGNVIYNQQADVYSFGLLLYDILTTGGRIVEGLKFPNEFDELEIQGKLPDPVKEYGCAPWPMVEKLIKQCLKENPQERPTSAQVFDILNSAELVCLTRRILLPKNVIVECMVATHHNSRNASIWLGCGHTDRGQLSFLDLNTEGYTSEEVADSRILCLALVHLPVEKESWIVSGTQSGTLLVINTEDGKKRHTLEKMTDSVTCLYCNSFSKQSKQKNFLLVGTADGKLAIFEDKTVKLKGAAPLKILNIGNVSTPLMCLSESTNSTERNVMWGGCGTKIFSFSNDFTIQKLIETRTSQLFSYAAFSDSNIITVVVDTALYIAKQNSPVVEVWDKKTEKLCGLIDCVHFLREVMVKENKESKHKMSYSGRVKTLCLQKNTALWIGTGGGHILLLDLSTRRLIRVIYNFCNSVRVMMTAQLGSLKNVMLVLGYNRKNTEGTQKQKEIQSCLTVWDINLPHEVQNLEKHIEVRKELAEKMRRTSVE
Chain of Voltage-gated inwardly rectifying potassium channel KCNH2 (Q12809 whole entry): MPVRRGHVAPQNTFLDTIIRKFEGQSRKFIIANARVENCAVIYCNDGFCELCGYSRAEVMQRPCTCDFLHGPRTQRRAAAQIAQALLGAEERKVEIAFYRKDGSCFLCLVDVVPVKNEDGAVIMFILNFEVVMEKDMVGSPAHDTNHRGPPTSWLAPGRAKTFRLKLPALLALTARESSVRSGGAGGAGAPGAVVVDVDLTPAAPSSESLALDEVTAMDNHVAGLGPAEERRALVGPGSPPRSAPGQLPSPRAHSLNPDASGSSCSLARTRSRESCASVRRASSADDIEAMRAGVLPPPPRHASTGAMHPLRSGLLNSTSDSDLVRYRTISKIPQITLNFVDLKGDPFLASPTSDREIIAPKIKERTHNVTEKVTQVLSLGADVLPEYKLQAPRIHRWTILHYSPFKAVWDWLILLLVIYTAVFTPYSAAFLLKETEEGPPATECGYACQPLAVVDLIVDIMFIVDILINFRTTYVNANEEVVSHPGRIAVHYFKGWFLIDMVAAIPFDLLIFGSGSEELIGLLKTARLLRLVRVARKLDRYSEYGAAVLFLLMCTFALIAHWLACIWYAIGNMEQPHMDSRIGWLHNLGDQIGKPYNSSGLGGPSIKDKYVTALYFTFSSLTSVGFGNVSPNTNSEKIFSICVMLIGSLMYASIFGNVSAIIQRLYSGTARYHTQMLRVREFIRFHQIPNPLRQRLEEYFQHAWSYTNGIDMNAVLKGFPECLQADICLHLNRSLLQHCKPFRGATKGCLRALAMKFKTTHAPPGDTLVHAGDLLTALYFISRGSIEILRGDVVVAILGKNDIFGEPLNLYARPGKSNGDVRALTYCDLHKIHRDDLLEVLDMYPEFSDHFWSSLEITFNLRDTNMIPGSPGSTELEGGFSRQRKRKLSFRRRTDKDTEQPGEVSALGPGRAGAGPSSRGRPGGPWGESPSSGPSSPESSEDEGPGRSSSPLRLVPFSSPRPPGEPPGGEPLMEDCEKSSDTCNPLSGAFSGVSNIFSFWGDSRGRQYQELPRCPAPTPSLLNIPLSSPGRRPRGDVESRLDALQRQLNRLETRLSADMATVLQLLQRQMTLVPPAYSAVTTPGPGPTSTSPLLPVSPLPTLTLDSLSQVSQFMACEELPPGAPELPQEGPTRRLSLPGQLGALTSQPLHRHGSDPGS
Chain of MAP/microtubule affinity-regulating kinase 3 (P27448 whole entry): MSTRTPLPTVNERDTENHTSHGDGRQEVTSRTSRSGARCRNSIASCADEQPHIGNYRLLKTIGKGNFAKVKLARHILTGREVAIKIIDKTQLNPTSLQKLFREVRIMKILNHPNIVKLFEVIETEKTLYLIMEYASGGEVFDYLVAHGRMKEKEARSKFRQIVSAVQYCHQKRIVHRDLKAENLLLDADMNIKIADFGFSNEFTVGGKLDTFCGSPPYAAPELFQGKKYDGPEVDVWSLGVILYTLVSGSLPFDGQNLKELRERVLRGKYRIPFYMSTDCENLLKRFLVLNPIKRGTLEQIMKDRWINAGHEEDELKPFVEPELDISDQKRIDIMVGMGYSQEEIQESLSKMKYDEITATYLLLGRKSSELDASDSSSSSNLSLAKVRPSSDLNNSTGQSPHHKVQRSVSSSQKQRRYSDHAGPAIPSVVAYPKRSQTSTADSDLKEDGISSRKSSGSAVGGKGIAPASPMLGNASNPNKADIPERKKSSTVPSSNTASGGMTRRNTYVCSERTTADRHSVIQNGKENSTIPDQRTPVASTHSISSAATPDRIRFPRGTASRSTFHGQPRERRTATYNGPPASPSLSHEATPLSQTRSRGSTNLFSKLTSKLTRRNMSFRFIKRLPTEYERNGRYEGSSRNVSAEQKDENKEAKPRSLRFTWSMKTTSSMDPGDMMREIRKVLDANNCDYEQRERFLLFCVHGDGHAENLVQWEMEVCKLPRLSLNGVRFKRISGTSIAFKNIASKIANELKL

CL [1]: 1890 mL/min/kg
clearance [2]: 22 mL/min/kg
pKa [4]: 7.79
fIC50 [5]: 9 nM
MRT [6]: 1.8 h
Compound: F[C@@H]1CNCC[C@H]1c1cc2nc(Nc3cnn([C@@H]4CC4(F)F)c3Cl)ncc2cc1Cl
IC50 [3]: 0.57 µM

Kp uu at 4 h, 2.5 µM [7]: 0.49
Kp uu at 2 h [8]: 0.37
Kp uu at 2 h [10]: 0.7
Compound: C[C@@H]1CN(c2cc(-c3n[nH]c4ccc(OC5(C)CC5)cc34)ncn2)C[C@H](C)O1 [MLi-2]
inhibition in vivo at 10 mg/kg [9]: 93%

efflux ratio at 3 h, up to 1 µM [11]: 4.3
MRT [12]: 16 h
bioavailability [15]: 64%
clearance [17]: 29 mL/min/kg
CL [18]: 205 mL/min/kg
CLint scaled at 0.3 µM [19]: 114 mL/min/kg
CL [20]: 480 mL/min/kg
Papp at 3 h, up to 1 µM [21]: 30 ×10⁻⁶ cm/s
IC50 [23]: 5.7 µM
clearance [25]: 15 mL/min/kg
CLint scaled at 0.3 µM [26]: 160 mL/min/kg
MRT [27]: 4.8 h
Activity [28]: 60%
AUC [29]: 16 µM·h
MRT [30]: 3.7 h
clearance [32]: 28 mL/min/kg
Kp uu at 4 h, 2.5 µM [7]: 0.43
bioavailability [33]: 65%
CLint scaled at 0.3 µM [34]: 464 mL/min/kg
solubility thermodynamic at 24 h [36]: 30 µg/mL (≈ 59.4 µM)
fIC50 [5]: 2.6 nM
efflux ratio at 3 h, up to 1 µM [37]: 4.1
CL [39]: 486 mL/min/kg
Papp A→B at 3 h, up to 1 µM [42]: 31 ×10⁻⁶ cm/s
Compound: Cc1c(Nc2ncc3cc(Cl)c(C4CCN([C@@H]5COC[C@@H]5O)CC4)cc3n2)cnn1[C@@H]1CC1(F)F
fold induction at 96 h [13]: 5
fold induction at 96 h [14]: 2.5
Activity [16]: Non-Toxic
Activity [22]: Non-Toxic
Activity [24]: Non-Toxic
IC50 [3]: 6.2 µM
Activity [31]: Non-Toxic
fold induction at 96 h [35]: 3
Activity [38]: Non-Toxic
Activity [40]: Non-Toxic
Activity [41]: Non-Toxic

Source: ChEMBL document CHEMBL5042510, “Structure-Guided Discovery of Aminoquinazolines as Brain-Penetrant and Selective LRRK2 Inhibitors” (J Med Chem, 2022)
